Source: patent publication US20020086278A1, “CHROMOGENIC MEDIA CONTAINING BLOOD OR HEMIN” (priority 1999, published 2002)
Where two headings read alike, the source gives them in different places.

Key:
[1] = tested on: Aeromonas hydrophilia (aehy); assay: Example 3: colony color on chromogenic TSA II with 5% sheep blood (chromogen in medium); format: cell-based; settings: for Colony Color: CO2
[2] = tested on: Branhamella catarrhalis (brca); assay: as above; format: cell-based; settings: for Colony Color: CO2
Candida albicans (caal) = assay: as above; format: cell-based
[3] = tested on: Citrobacter freundii (cifr); assay: as above; format: cell-based; settings: for Colony Color: CO2
[4] = tested on: Entercoccus faecalis (enfa); assay: as above; format: cell-based
E. faecium (enfu) = assay: as above; format: cell-based; settings: for Colony Color: enfu 49032
[5] = tested on: E. coli (non-O157) (esco); format: cell-based
[6] = tested on: Klebsiella pneumoniae (klpn); assay: Example 3: colony color on chromogenic TSA II with 5% sheep blood (chromogen in medium); format: cell-based
[7] = tested on: Pseudomonas aeruginosa (psae); assay: as above; format: cell-based; settings: for Colony Color: CO2
[8] = tested on: Serratia marcescens (sema); assay: as above; format: cell-based; settings: for Colony Color: sema 13880, CO2
[9] = tested on: Staphylococcus aureus (stau); assay: as above; format: cell-based
[10] = tested on: Staphylococcus Coag Neg (step); assay: as above; format: cell-based; settings: for Colony Color on Various Chromogenic TSA II with 5% Sheep Blood: 18 h
S. milleri (stmi) = assay: as above; format: cell-based
S. pneumoniae (stpn) = assay: as above; format: cell-based; settings: for Colony Color on Various Chromogenic TSA II with 5% Sheep Blood: 18 h
S pyogenes (stpy) = assay: as above; format: cell-based; settings: for Colony Color: 21 h; for Colony Color on Various Chromogenic TSA II with 5% Sheep Blood: 18 h
[11] = Precipitate of chromogen on pre-plated media; format: physicochemical; settings: After 1 week
Protocol: 50 μl of each chromogen solution was added to the surface of each of the following pre-plated media (one chromogen solution per plate):
The solution was dispersed using a spreader and allowed to dry 3-4 hours in a hood.

cakr 34135 = assay: Example 3: colony color on chromogenic TSA II with 5% sheep blood (chromogen in medium); format: cell-based
milu 9341 = assay: as above; format: cell-based
[12] = chromogenic TSA II with 5% Sheep Blood, 0.1 g/l, 3 strains tested
[13] = chromogenic TSA II with 5% Sheep Blood, 0.1 g/l, 2 strains tested
[14] = chromogenic TSA II with 5% Sheep Blood, 0.1 g/l, 6 strains tested
[15] = chromogenic TSA II with 5% Sheep Blood, 0.1 g/l, 1 strain tested
[16] = chromogenic TSA II with 5% Sheep Blood, 0.1 g/l

## CC(=O)N[C@H]1[C@H](Oc2c[nH]c3ccc(Br)c(Cl)c23)O[C@H](CO)[C@H](O)[C@@H]1O [X-Acglmn, 5-Br-4-Cl-3-indolyl-N-Acetyl-β-D-galactosaminide]
[1]; aehy 7965, 18 h
  Colony Color: db
[1]; aehy 7965, 21 h
  Colony Color: gb
[1]; aehy 7966, 18 h
  Colony Color: db
[1]; aehy 7966, 21 h
  Colony Color: gb
[1]; aehy 49847, 18 h
  Colony Color: db
[1]; aehy 49847, 21 h
  Colony Color: gb
[1]; [12]
  Colony Color (Summary): +
[2]; brca 25238, 18 h
  Colony Color: 0
[2]; brca 25238, 21 h
  Colony Color: 0
[2]; brca 25240, 21 h
  Colony Color: 0
[2]; [13]
  Colony Color (Summary): 0
Candida albicans (caal); caal 10231, CO2, 24 h
  Colony Color: gb
Candida albicans (caal); caal 10231, air, 24 h
  Colony Color: 0
Candida albicans (caal); [13]
  Colony Color (Summary): +
Candida albicans (caal); one C. albicans
  Colony Color: blue
[3]; [13]
  Colony Color (Summary): 0
[3]; cifr 8454, 18 h
  Colony Color: 0
[3]; cifr 8454, 21 h
  Colony Color: 0
[3]; cifr 33128, 18 h
  Colony Color: 0
[3]; cifr 33128, 21 h
  Colony Color: 0
[4]; [14]
  Colony Color (Summary): +
[4]; enfa 597, CO2, 18 h
  Colony Color: db
[4]; enfa 597, CO2, 21 h
  Colony Color: db
[4]; enfa 10741, CO2, 18 h
  Colony Color: db
[4]; enfa 10741, CO2, 21 h
  Colony Color: db
[4]; enfa 12953, CO2, 18 h
  Colony Color: db
[4]; enfa 12953, CO2, 21 h
  Colony Color: db
[4]; enfa 14506, CO2, 18 h
  Colony Color: db
[4]; enfa 14506, CO2, 21 h
  Colony Color: db
[4]; enfa 29212, CO2, 18 h
  Colony Color: db
[4]; enfa 29212, CO2, 21 h
  Colony Color: db
[4]; enfa 29212, CO2, 24 h
  Colony Color: db
[4]; enfa 29212, air, 24 h
  Colony Color: db
E. faecium (enfu); [15]
  Colony Color (Summary): +
E. faecium (enfu); CO2, 18 h
  Colony Color: lb
E. faecium (enfu); CO2, 21 h
  Colony Color: db
E. faecium (enfu); air, 21 h
  Colony Color: lb
[5]; [12]
  Colony Color (Summary): 0
[5]; esco 11775, CO2, 18 h
  Colony Color: 0
[5]; esco 11775, CO2, 21 h
  Colony Color: 0
[5]; esco 25922, CO2, 24 h
  Colony Color: 0
[5]; esco 25922, air, 24 h
  Colony Color: 0
[5]; esco 33605, CO2, 18 h
  Colony Color: 0
[5]; esco 33605, CO2, 21 h
  Colony Color: 0
[6]; [12]
  Colony Color (Summary): 0
[6]; klpn 13883, CO2, 18 h
  Colony Color: 0
[6]; klpn 13883, CO2, 21 h
  Colony Color: 0
[6]; klpn 33495, CO2, 18 h
  Colony Color: vlgb
[6]; klpn 33495, CO2, 24 h
  Colony Color: 0
[6]; klpn 33495, air, 24 h
  Colony Color: 0
[6]; klpn 33606, CO2, 18 h
  Colony Color: 0
[6]; klpn 33606, CO2, 21 h
  Colony Color: 0
[7]; [12]
  Colony Color (Summary): 0
[7]; psae 9027, 18 h
  Colony Color: 0
[7]; psae 9027, 21 h
  Colony Color: 0
[7]; psae 15442, 18 h
  Colony Color: 0
[7]; psae 15442, 21 h
  Colony Color: 0
[7]; psae 33607, 18 h
  Colony Color: 0
[7]; psae 33607, 21 h
  Colony Color: 0
[8]; [15]
  Colony Color (Summary): +
[8]; 18 h
  Colony Color: gb
[8]; 21 h
  Colony Color: gb
[9]; chromogenic TSA II with 5% Sheep Blood, 0.1 g/l, 5 strains tested
  Colony Color (Summary): 0
[9]; stau 1006, CO2, 21 h
  Colony Color: 0
[9]; stau 1007, CO2, 21 h
  Colony Color: 0
[9]; stau 1008, CO2, 21 h
  Colony Color: 0
[9]; stau 1009, CO2, 21 h
  Colony Color: 0
[9]; stau 25923, CO2, 18 h
  Colony Color: 0
[9]; stau 25923, CO2, 24 h
  Colony Color: 0
[9]; stau 25923, air, 24 h
  Colony Color: 0
[9]; stau t006, CO2, 18 h
  Colony Color on Various Chromogenic TSA II with 5% Sheep Blood: 0
[9]; stau t007, CO2, 18 h
  Colony Color on Various Chromogenic TSA II with 5% Sheep Blood: 0
[9]; stau t008, CO2, 18 h
  Colony Color on Various Chromogenic TSA II with 5% Sheep Blood: 0
[9]; stau t009, CO2, 18 h
  Colony Color on Various Chromogenic TSA II with 5% Sheep Blood: 0
[10]; one S. epidermidis
  Colony Color: blue
[10]; step 12228, CO2
  Colony Color on Various Chromogenic TSA II with 5% Sheep Blood: 0
[10]; step 12228, CO2, 21 h
  Colony Color: 0
[10]; step 12228, air, 21 h
  Colony Color: 0
[10]; step cdc1, CO2
  Colony Color on Various Chromogenic TSA II with 5% Sheep Blood: 0
[10]; step cdc1, CO2, 21 h
  Colony Color: 0
[10]; step cdc1, air, 21 h
  Colony Color: 0
[10]; step cdc2, CO2, 21 h
  Colony Color: 0
[10]; step cdc2, air, 21 h
  Colony Color: 0
[10]; step cdc3, CO2, 21 h
  Colony Color: 0
[10]; step cdc3, air, 21 h
  Colony Color: 1b
[10]; step cdc4, CO2
  Colony Color on Various Chromogenic TSA II with 5% Sheep Blood: 0
[10]; step cdc4, CO2, 21 h
  Colony Color: 0
[10]; step cdc4, air, 21 h
  Colony Color: 0
[10]; stha cdc2, CO2
  Colony Color on Various Chromogenic TSA II with 5% Sheep Blood: 0
[10]; stsa cdc3, CO2
  Colony Color on Various Chromogenic TSA II with 5% Sheep Blood: 0
S. milleri (stmi); [16]
  Growth vs. control: <grth
S. milleri (stmi); [13]
  Colony Color (Summary): 0
S. milleri (stmi); stmi 6242, CO2, 18 h
  Colony Color on Various Chromogenic TSA II with 5% Sheep Blood: 0
S. milleri (stmi); stmi 6249, air, 21 h
  Colony Color: 0
S. pneumoniae (stpn); [16]
  Growth vs. control: <grth
S. pneumoniae (stpn); [14]
  Colony Color (Summary): 0
S. pneumoniae (stpn); stpn 1259, CO2, 21 h
  Colony Color: 0
S. pneumoniae (stpn); stpn 1260, CO2, 21 h
  Colony Color: 0
S. pneumoniae (stpn); stpn 1331, CO2, 21 h
  Colony Color: 0
S. pneumoniae (stpn); stpn 1628, CO2, 21 h
  Colony Color: 0
S. pneumoniae (stpn); stpn 6303, CO2, 24 h
  Colony Color: 0
S. pneumoniae (stpn); stpn 6303, air, 24 h
  Colony Color: 0
S. pneumoniae (stpn); stpn 6305, CO2, 24 h
  Colony Color: 0
S. pneumoniae (stpn); stpn 6305, air, 24 h
  Colony Color: 0
S. pneumoniae (stpn); stpn t259, CO2
  Colony Color on Various Chromogenic TSA II with 5% Sheep Blood: 0
S. pneumoniae (stpn); stpn t260, CO2
  Colony Color on Various Chromogenic TSA II with 5% Sheep Blood: 0
S. pneumoniae (stpn); stpn t331, CO2
  Colony Color on Various Chromogenic TSA II with 5% Sheep Blood: drkr < muc
S. pneumoniae (stpn); stpn t628, CO2
  Colony Color on Various Chromogenic TSA II with 5% Sheep Blood: 0
S pyogenes (stpy); [16]
  Growth vs. control: <grth
S pyogenes (stpy); [14]
  Colony Color (Summary): 0
S pyogenes (stpy); stpy 1027, CO2
  Colony Color: 0
S pyogenes (stpy); stpy 1028, CO2
  Colony Color: 0
S pyogenes (stpy); stpy 1029, CO2
  Colony Color: 0
S pyogenes (stpy); stpy 1030, CO2
  Colony Color: 0
S pyogenes (stpy); stpy 19615, CO2
  Colony Color: 0
S pyogenes (stpy); stpy 19615, air
  Colony Color: 0
S pyogenes (stpy); stpy 49117, CO2
  Colony Color: 0
S pyogenes (stpy); stpy 49117, air
  Colony Color: 0
S pyogenes (stpy); stpy 51339, CO2
  Colony Color on Various Chromogenic TSA II with 5% Sheep Blood: 0
  Colony Color: 0
S pyogenes (stpy); stpy 51339, air
  Colony Color: 0
S pyogenes (stpy); stpy t027, CO2
  Colony Color on Various Chromogenic TSA II with 5% Sheep Blood: 0
S pyogenes (stpy); stpy t028, CO2
  Colony Color on Various Chromogenic TSA II with 5% Sheep Blood: 0
S pyogenes (stpy); stpy t029, CO2
  Colony Color on Various Chromogenic TSA II with 5% Sheep Blood: 0
S pyogenes (stpy); stpy t030, CO2
  Colony Color on Various Chromogenic TSA II with 5% Sheep Blood: 0
[11]
  Precipitate on plates after 1 week: some precipitate was evident
Cakr 34135; CO2, 18 h
  Colony Color: 0
Cakr 34135; CO2, 21 h
  Colony Color: 0
Milu 9341; CO2, 18 h
  Colony Color: ly
Milu 9341; CO2, 21 h
  Colony Color: 0
